According to PubChem BioAssay AID2060500 (Molecular Pharmacology Branch, DTP, NCI, 2025):

System: 596521-263-R-J1-PDC complex spheroids, viability % of control
Test: Anticancer human tumor 596521-263-R-J1-PDC patient-derived soft tissue sarcoma cell line growth inhibition [GQUAD]
Details: for IC50: curve of first compound; for viability, T/C: stronger effect = lower value; active = viability on the fitted dose curve at most 10% of control; inactive = the rest
Procedure, shortened: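 Tumor cells were grown as complex spheroids with HUVEC endothelial cells and mesenchymal stem cells as stroma. G-quadruplex stabilizers were combined with targeted agents over half-log dilutions from near the clinical Cmax, or from 10 microM.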

[1] = second compound 0.0316 µM, first compound 0.0316 µM
[2] = second compound 0.0316 µM, first compound 0.1 µM
[3] = second compound 0.0316 µM, first compound 0.316 µM
[4] = second compound 0.0316 µM, first compound 1 µM
[5] = second compound 0.0316 µM, first compound 3.16 µM
[6] = second compound 0.0316 µM, first compound 10 µM
[7] = second compound 0.1 µM, first compound 0.0316 µM
[8] = second compound 0.1 µM, first compound 0.1 µM
[9] = second compound 0.1 µM, first compound 0.316 µM
[10] = second compound 0.1 µM, first compound 1 µM
[11] = second compound 0.1 µM, first compound 3.16 µM
[12] = second compound 0.1 µM, first compound 10 µM
[13] = second compound 0.316 µM, first compound 0.0316 µM
[14] = second compound 0.316 µM, first compound 0.1 µM
[15] = second compound 0.316 µM, first compound 0.316 µM
[16] = second compound 0.316 µM, first compound 1 µM
[17] = second compound 0.316 µM, first compound 3.16 µM
[18] = second compound 0.316 µM, first compound 10 µM
[19] = second compound 1 µM, first compound 0.0316 µM
[20] = second compound 1 µM, first compound 0.1 µM
[21] = second compound 1 µM, first compound 0.316 µM
[22] = second compound 1 µM, first compound 1 µM
[23] = second compound 1 µM, first compound 3.16 µM
[24] = second compound 1 µM, first compound 10 µM
[25] = second compound 3.16 µM, first compound 0.0316 µM
[26] = second compound 3.16 µM, first compound 0.1 µM
[27] = second compound 3.16 µM, first compound 0.316 µM
[28] = second compound 3.16 µM, first compound 1 µM
[29] = second compound 3.16 µM, first compound 3.16 µM
[30] = second compound 3.16 µM, first compound 10 µM
[31] = second compound 10 µM, first compound 0.0316 µM
[32] = second compound 10 µM, first compound 0.1 µM
[33] = second compound 10 µM, first compound 0.316 µM
[34] = second compound 10 µM, first compound 1 µM
[35] = second compound 10 µM, first compound 3.16 µM
[36] = second compound 10 µM, first compound 10 µM
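Note: spheroids exposed to drugs for 7 days before viability reading.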
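Throughout, for viability, T/C: 100% = DMSO vehicle control viability.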

CCCS(=O)(=O)Nc1ccc(F)c(C(=O)c2c[nH]c3ncc(-c4ccc(Cl)cc4)cc23)c1F + Cc1[nH]c2ccc(F)cc2c1-c1nc2c3cccnc3c3ncccc3c2[nH]1
836 nM: IC50 (second compound 0.316 µM)
358 nM: IC50 (second compound 0.1 µM)
419 nM: IC50 (second compound 10 µM)
inactive: viability, T/C [1] 107% | viability, T/C [2] 73.5% | viability, T/C [3] 56.2% | viability, T/C [4] 41.7% | viability, T/C [5] 40.5% | viability, T/C [6] 40.2% | viability, T/C [7] 89.3% | viability, T/C [8] 74.2% | viability, T/C [9] 51.8% | viability, T/C [10] 36.8% | viability, T/C [11] 42.8% | viability, T/C [12] 31.1% | viability, T/C [13] 112% | viability, T/C [14] 81.4% | viability, T/C [15] 61.1% | viability, T/C [16] 44.4% | viability, T/C [17] 46.3% | viability, T/C [18] 33.1% | viability, T/C [19] 84.4% | viability, T/C [20] 81.6% | viability, T/C [21] 57.2% | viability, T/C [22] 38.4% | viability, T/C [23] 44.4% | viability, T/C [24] 29.7% | viability, T/C [25] 92.6% | viability, T/C [26] 70.4% | viability, T/C [27] 53.2% | viability, T/C [28] 37.6% | viability, T/C [29] 37.9% | viability, T/C [30] 32% | viability, T/C [31] 74.6% | viability, T/C [32] 58.5% | viability, T/C [33] 58% | viability, T/C [34] 38.1% | viability, T/C [35] 39.3% | viability, T/C [36] 30.4%
504 nM: IC50 (second compound 0.0316 µM)
498 nM: IC50 (second compound 1 µM)
376 nM: IC50 (second compound 3.16 µM)

Cc1[nH]c2ccccc2c1CCNCc1ccc(/C=C/C(=O)NO)cc1 + Cc1[nH]c2ccc(F)cc2c1-c1nc2c3cccnc3c3ncccc3c2[nH]1
inactive: viability, T/C (second compound 0.0316 µM, first compound 0.000999 µM) 108% | viability, T/C (second compound 0.0316 µM, first compound 0.00316 µM) 97% | viability, T/C (second compound 0.0316 µM, first compound 0.00999 µM) 100% | viability, T/C [1] 82% | viability, T/C (second compound 0.0316 µM, first compound 0.0999 µM) 96.4% | viability, T/C [3] 90.1% | viability, T/C (second compound 0.1 µM, first compound 0.000999 µM) 99.3% | viability, T/C (second compound 0.1 µM, first compound 0.00316 µM) 90.6% | viability, T/C (second compound 0.1 µM, first compound 0.00999 µM) 94.2% | viability, T/C [7] 91.3% | viability, T/C (second compound 0.1 µM, first compound 0.0999 µM) 86.9% | viability, T/C [9] 92.7% | viability, T/C (second compound 0.316 µM, first compound 0.000999 µM) 102% | viability, T/C (second compound 0.316 µM, first compound 0.00316 µM) 94.7% | viability, T/C (second compound 0.316 µM, first compound 0.00999 µM) 93.2% | viability, T/C [13] 94.3% | viability, T/C (second compound 0.316 µM, first compound 0.0999 µM) 87% | viability, T/C [15] 94.9% | viability, T/C (second compound 1 µM, first compound 0.000999 µM) 95.9% | viability, T/C (second compound 1 µM, first compound 0.00316 µM) 99.6% | viability, T/C (second compound 1 µM, first compound 0.00999 µM) 91.4% | viability, T/C [19] 83.9% | viability, T/C (second compound 1 µM, first compound 0.0999 µM) 90.1% | viability, T/C [21] 94.2% | viability, T/C (second compound 3.16 µM, first compound 0.000999 µM) 82.6% | viability, T/C (second compound 3.16 µM, first compound 0.00316 µM) 82.2% | viability, T/C (second compound 3.16 µM, first compound 0.00999 µM) 91% | viability, T/C [25] 90.1% | viability, T/C (second compound 3.16 µM, first compound 0.0999 µM) 84.1% | viability, T/C [27] 88.8% | viability, T/C (second compound 10 µM, first compound 0.000999 µM) 81.2% | viability, T/C (second compound 10 µM, first compound 0.00316 µM) 67.2% | viability, T/C (second compound 10 µM, first compound 0.00999 µM) 85% | viability, T/C [31] 75.5% | viability, T/C (second compound 10 µM, first compound 0.0999 µM) 76.4% | viability, T/C [33] 72%
> 316 nM: IC50 (second compound 0.0316 µM) | IC50 (second compound 0.1 µM) | IC50 (second compound 0.316 µM) | IC50 (second compound 1 µM) | IC50 (second compound 3.16 µM) | IC50 (second compound 10 µM)

Nc1ccn(C2OC(CO)C(O)C2(F)F)c(=O)n1 (stereo unspecified) + Cc1[nH]c2ccc(F)cc2c1-c1nc2c3cccnc3c3ncccc3c2[nH]1
125 nM: IC50 (second compound 3.16 µM)
inactive: viability, T/C [1] 54.6% | viability, T/C [2] 45.5% | viability, T/C [3] 38.1% | viability, T/C [4] 38.7% | viability, T/C [5] 42.6% | viability, T/C [6] 32.9% | viability, T/C [7] 57% | viability, T/C [8] 47.2% | viability, T/C [9] 38% | viability, T/C [10] 47.2% | viability, T/C [11] 39.2% | viability, T/C [12] 41.5% | viability, T/C [13] 57% | viability, T/C [14] 39% | viability, T/C [15] 36.4% | viability, T/C [16] 44.2% | viability, T/C [17] 45.4% | viability, T/C [18] 41.1% | viability, T/C [19] 53.3% | viability, T/C [20] 38.3% | viability, T/C [21] 43.6% | viability, T/C [22] 39.3% | viability, T/C [23] 40.8% | viability, T/C [24] 37.9% | viability, T/C [25] 60.7% | viability, T/C [26] 49.2% | viability, T/C [27] 43% | viability, T/C [28] 42% | viability, T/C [29] 42.7% | viability, T/C [30] 30.7% | viability, T/C [31] 56.7% | viability, T/C [32] 37.3% | viability, T/C [33] 38.8% | viability, T/C [34] 32.7% | viability, T/C [35] 38.2% | viability, T/C [36] 36.3%
58.1 nM: IC50 (second compound 0.1 µM)
< 31.6 nM: IC50 (second compound 0.316 µM) | IC50 (second compound 1 µM) | IC50 (second compound 10 µM)
34.7 nM: IC50 (second compound 0.0316 µM)
